Reference: patent US10322132B2, “Prevention or treatment of uratic or gouty diseases” (SHANTON PHARMA CO., LTD., priority 2015, dated 2019)

Columns and labels:
[1] = Pharmacokinetics experiment in cynomolgus monkeys, intravenous; assay type: in vivo, cynomolgus monkeys (Macaca fascicularis); settings: 5 mg/kg, Mean ± SD, n = 3
Procedure: Three non-naïve cynomolgus monkeys were administered with test compounds A, B and D at a dose of 5 mg/kg by intravenous injection and with test compound C at a dose of 3 mg/kg by intravenous injection, with one compound being tested at a time. Blood was collected from the vein before administration and 1 h, 3 h, 6 h and 24 h after administration, and plasma was isolated. The plasma was analyzed by a 4000 Q Trap LC-MS/MS instrument. The concentrations of the test samples were output by Analyst 1.6.1 from AB Company. The parameters ( ) such as the mean, standard deviation, and coefficient of variation were calculated using Microsoft Excel, wherein the values directly output by Analyst 1.6.1 requires no calculation. PK parameters were calculated using Pharsight Phoenix 6.2 software (NCA model).

serum uric acid = assay: Uric acid-lowering experiment in cynomolgus monkeys; assay type: in vivo; design: Reduction rate of serum uric acid: concentration or dose not given beside the values; settings: for effect on serum uric acid levels in the test monkeys (in words): compared to the levels measured before administration; for Reduction rate of serum uric acid / Content of serum uric acid: intravenous
Procedure: The experiment was done by reference to Komoriya K, Osada Y, Hasegawa M, Horiuchi H, Kondo S, Couch R C, Griffin T B. Hypouricemic effect of allopurinol and the novel xanthine oxidase inhibitor TEI-6720 in chimpanzees. Eur J Pharmacol. 1993 Dec. 21; 250(3): 455-60.
Each compound was tested in three non-naïve cynomolgus monkeys (1 #, 2 # and 3 #), wherein the monkeys were administered with test samples by intravenous injection. Blood was collected from the vein before administration and 1 h, 3 h, 6 h and 24 h after administration. The blood was left still at room temperature. The serum was collected by centrifugation. The content of uric acid in serum was measured. Reduction rate of serum uric acid=(average uric acid content before administration−average uric acid content after administration)/average uric acid content before administration*100%.

[2] = test system: MSU-induced gouty arthritis; assay: Pain value in rats with gouty arthritis (electronic Von Frey pain threshold detector); assay type: in vivo, Male Wistar rats; settings: for Pain value: Example 5, 15 mg/kg subcutaneous, left foot, Von Frey; for effect on pain values in the test rats (in words): Example 5, compared with the model group
Procedure: The rats with gouty arthritis were placed in a metabolic cage, and the palm center of the left foot of each rat was irritated with an electronic Von Frey pain threshold detector. The maximum stress value was recorded when each rat withdrew its foot, and the value was the pain value of that rat.

IFNγ = assay: ConA-induced IFNγ release; assay type: in vivo, Male C57BL/6 mice; settings: for inhibition (%): IFN-γ in serum vs model group, 20 mg/kg subcutaneous; for effect on content of IFNγ in the serum of the test mice (in words): compared with the model group; for Content of IFN-γ: serum, 20 mg/kg subcutaneous 30 min before ConA 15 mg/kg tail vein, 3 h after ConA
Procedure: The experiment was conducted by reference to Dalya R. Soondl, Elisa Bjørgo, etc. PI3K p110δ regulates T cell cytokine production during primary and secondary immune responses in mice and humans. Blood. Author manuscript; available in PMC 2013 Mar. 11; and Gabriele Sass, Sonja Heinlein, etc. CYTOKINE EXPRESSION IN THREE MOUSE MODELS OF EXPERIMENTAL HEPATITIS. CYTOKINE, Vol. 19, No. 3 (7 Aug.), 2002: pp 115-120.
The C57BL/6 mice were raised in the SPF-grade animal room for 1 week, and were then randomly divided into the corresponding model group and the administration groups according to the body weight. The […] were administered with ConA by the tail vein injection at a dose of 15 mg/kg 30 min after the administration of the solvent or the test samples by subcutaneous injection at a dose of 20 mg/kg. After the mice were anesthetized with sodium pentobarbital (45 mg/kg by intraperitoneal injection) 3 h after administration of ConA, the blood was collected by cardiac puncture. The blood was placed in the centrifuge tube without anticoagulant and left still at room temperature. One hour later, the blood was centrifuged. The serum was extracted and stored at −80° C. The content of IFNγ (γ-interferon) in the serum was detected by a Mouse IFNγ Elisa

[3] = target: T1, human urate transporter 1 (hURAT1) (Homo sapiens, UniProt Q96S37); assay: Uptake of 14C-labeled uric acid in hURAT1 transfected cells; assay type: cell-based; settings: 14C uric acid uptake, hURAT1-transfected HEK-293T cells, 5 min at 37° C.; read-out: IC50 (μM), inhibition of hURAT1 activity
T1 construct: expressed in transfected cells; host or cells: HEK-293T
T1 sequence (Q96S37 1-553): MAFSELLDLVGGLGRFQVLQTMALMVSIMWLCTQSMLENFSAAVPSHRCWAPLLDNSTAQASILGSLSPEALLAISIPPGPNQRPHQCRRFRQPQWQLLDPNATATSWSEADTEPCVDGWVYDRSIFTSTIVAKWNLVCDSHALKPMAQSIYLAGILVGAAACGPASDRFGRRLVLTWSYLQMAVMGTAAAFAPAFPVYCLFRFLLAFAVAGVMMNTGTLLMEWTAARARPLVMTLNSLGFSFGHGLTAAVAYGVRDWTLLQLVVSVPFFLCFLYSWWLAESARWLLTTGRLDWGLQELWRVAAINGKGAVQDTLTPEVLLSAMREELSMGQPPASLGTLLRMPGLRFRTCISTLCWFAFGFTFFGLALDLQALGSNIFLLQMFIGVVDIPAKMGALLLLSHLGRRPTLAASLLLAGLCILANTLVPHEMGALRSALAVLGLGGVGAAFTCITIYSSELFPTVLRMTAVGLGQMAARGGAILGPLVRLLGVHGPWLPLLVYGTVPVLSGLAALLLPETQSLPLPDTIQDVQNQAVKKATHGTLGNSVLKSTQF
Procedure: The compounds were prepared into the stock solutions (5 mM) with dimethyl sulfoxide (DMSO). This experiment involved 8 concentrations in total. The final concentrations were 5000 nM, 1250 nM, 312.5 nM, 78.1 nM, 19.5 nM, 4.9 nM, 1.2 nM and 0.3 nM, respectively.
Preparation of buffers: chlorine-free HBSS buffer (125 mM sodium gluconate, 4.8 mM potassium gluconate, 1.3 mM calcium gluconate, 1.2 mM KH2PO4, 1.2 mM MgSO4, 5.6 mM glucose, 25 mM 4-hydroxyethylpiperazine ethanesulfonic acid (HEPES) (pH 7.4)); lysis buffer (100 mM NaOH)
Transfected cells stably expressing human urate transporter 1 (hURAT1) were obtained by: placing human embryonic kidney cells (HEK-293T) in a cell culture plate containing complete medium, incubating the cells for 24 h at 37° C. in 5% CO2, rinsing the cells with phosphate buffered saline (PBS) followed by trypsin digestion to prepare a suspension containing single cells; placing 8×10^6 cells a cell culture plate, adding dropwise TransIT-293 Reagent:DNA complexes (1.5 ml of Opti-MEM I Reduced-Serum Medium, 15 g of plasmid DNA, and 45 μL of TransIT-293 Reagent were mixed uniformly and then incubated at room temperature for 30 min) to different areas of the cell culture plate, gently shaking the cell culture plate to homogeneously distribute the TransIT-293 Reagent:DNA complexes, and incubating the cells for 48 h at 37° C. in 5% CO2.
Uptake of ^14C-labeled uric acid in hURAT1 transfected cells: (1) hURAT1-transfected cells were placed in a Poly-D-lysine 96-well microplate at a cell density of 6×10^4/well, and left still overnight at 37° C. in 5% CO2; (2) after the cells were placed in the Poly-D-lysine 96-well microplate for 12 h, the cells were washed for 3 times with 200 μl of pre-heated chlorine-free HBSS buffer per well, and the washing solution in the microplate was removed; (3) 50 μl of uric acid-containing [8-14C] […]

[4] = 3 h after administration vs before administration, animal 1#
[5] = 3 h after administration vs before administration, animal 2#
[6] = 3 h after administration vs before administration, mean
[7] = 3 h after administration, animal 1#
[8] = 3 h after administration, animal 2#

Row | Compound | t1/2z [1] [h] | effect on serum uric acid levels in the test monkeys (in words) (serum uric acid) | Reduction rate of serum uric acid (serum uric acid; [4]) [%] | Reduction rate of serum uric acid (serum uric acid; [5]) [%] | Reduction rate of serum uric acid (serum uric acid; [6]) [%] | Content of serum uric acid (serum uric acid; [7]) [µmol/L] | Content of serum uric acid (serum uric acid; [8]) [µmol/L] | Content of serum uric acid (serum uric acid; 3 h after administration, mean) [µmol/L] | Pain value [2] [g] | effect on pain values in the test rats (in words) [2] | inhibition (%) (IFNγ) | effect on content of IFNγ in the serum of the test mice (in words) (IFNγ) | Content of IFN-γ (IFNγ) [pg/mL] | IC50 [3] [µM] | other results
1 | CCCCCn1c(=O)[nH]c(=O)c2[nH]c(Cl)nc21 [Compound A, 8-chloro-3-pentyl-3,7-dihydro-1H-purine-2,6-dione] | 14.55 ± 6.69 | significantly reduce | 18.5 | 38.0 | 22.8 | 61.9 | 57.0 | 59.6 | 47.51 | significantly increase | 38.3 | significantly reduce | 2025 | 2.52 | Reduction rate of serum uric acid (serum uric acid; 3 h after administration vs before administration, animal 3#): 5.98%; Content of serum uric acid (serum uric acid; 3 h after administration, animal 3#): 59.9 µmol/L; Reduction rate of serum uric acid (serum uric acid; 6 h after administration vs before administration, animal 1#): 10.9%; Reduction rate of serum uric acid (serum uric acid; 6 h after administration vs before administration, animal 2#): 48.2%; Reduction rate of serum uric acid (serum uric acid; 6 h after administration vs before administration, animal 3#): 20.9%; Reduction rate of serum uric acid (serum uric acid; 6 h after administration vs before administration, mean): 28.5%; Content of serum uric acid (serum uric acid; 6 h after administration, animal 1#): 67.6 µmol/L; Content of serum uric acid (serum uric acid; 6 h after administration, animal 2#): 47.6 µmol/L; Content of serum uric acid (serum uric acid; 6 h after administration, animal 3#): 50.4 µmol/L; Content of serum uric acid (serum uric acid; 6 h after administration, mean): 55.2 µmol/L
2 | CCCCCn1c(=O)n(C)c(=O)c2[nH]c(Cl)nc21 [Compound D, 8-chloro-1-methyl-3-pentyl-3,7-dihydro-1H-purine-2,6-dione] | 5.90 ± 0.42 | significantly reduce | 14.3 | 13.6 | 13.9 | 49.6 | 47.1 | 48.4 | 43.10 | significantly increase | 35.8 | significantly reduce | 2108 | 0.87 | 
